Assay results reported in article PMC11742122, “Therapeutic Potential of Crocin and Nobiletin in a Mouse Model of Dry Eye Disease: Modulation of the Inflammatory Response and Protection of the Ocular Surface” (Iranian Journal of Pharmaceutical Research : IJPR, 2024).
Marks after values point to notes of the source that are not given here.

Columns and labels:
HEK-293 cells = test: MTT cell viability assay; format: cell-based; conditions: Homo sapiens, HEK293, 48-hour treatment
Experimental: The HEK-293 cell line was acquired from the National Cell Bank of Iran, situated at the Pasteur Institute in Tehran. These cells were propagated in Roswell Park Memorial Institute (RPMI) medium, supplemented with 10% fetal bovine serum (FBS), 100 units/mL penicillin, and 100 μg/mL streptomycin. The culture conditions maintained were a humidified incubator set at 37°C, with 5% CO2 and 95% humid air. The culture medium was replenished twice per week until the cells reached 80 - 90% confluency. Subsequently, the cells were dissociated using trypsin and subcultured for passaging and cryopreservation. All experiments were conducted using cells within the passage number range of 3 - 6. Cells were routinely tested for mycoplasma contamination using Hoechst staining. Briefly, cells were fixed and stained with Hoechst 33258 dye, which binds to DNA. Samples were then examined under a fluorescence microscope for the presence of extranuclear DNA, indicative of mycoplasma infection. All cell cultures used in this study were confirmed to be mycoplasma-negative. […] In this study, (1 × 10^4) Hek-293 cells were seeded per well in 96-well plates. […] The measurement of absorbance was performed at an optical density (OD) of 570 nm. Cell viability was assessed by comparing the absorbance values of the drug-treated cells to those of untreated control cells. […]

rabbit eye = test: Eye irritation test (Draize test) in rabbits' eyes
Experimental: To assess the ocular toxicity of the two compounds, crocin and nobiletin, an in vivo eye irritation test was conducted. The concentrations evaluated were strategically chosen based on the respective IC50 of each compound. Specifically, the concentrations tested included the IC50 value itself, as well as concentrations at one-half and one-quarter of the IC50 value. This approach allowed for a comprehensive evaluation of the potential eye irritation caused by varying levels of exposure to these compounds. The experimental protocol involved the preparation of stock solutions for crocin and nobiletin using DMSO as the solvent at high concentrations. These stock solutions were then diluted with an artificial tear solution to obtain the desired treatment doses for instillation into the eye conjunctiva of the test subjects. Subsequently, the team meticulously observed and recorded any occurrences of eye symptoms, focusing on the iris, cornea, and conjunctiva over periods of 1, 24, 48, and 72 hours ([18]).

TNF-α = TNF-α concentration in LPS-stimulated HEK-293 cell line; format: cell-based; conditions: HEK-293 cells, LPS 1 μg/mL, 48 hours; for TNF-α concentration, higher dose versus lower dose: crocin 68 μM, nobiletin 65.5 μM; for TNF-α concentration (anti-inflammatory effect): crocin 34 and 68 μM, nobiletin 32.75 and 65.5 μM, vs LPS group
Experimental: Figure 3. Tumor necrosis factor-alpha (TNF-α) concentration in HEK-293 cells treated with LPS (1 μg/mL) for 48 hours.

Compound | IC50 (HEK-293 cells) [µM] | highest safe concentration (rabbit eye; rabbit eye irritation test) | ocular observations (rabbit eye; rabbit, in vivo) | TNF-α concentration, higher dose versus lower dose (TNF-α) | TNF-α concentration (anti-inflammatory effect) (TNF-α) | highest safe concentration (rabbit eye; rabbit, in vivo, 72 h)
CC(/C=C/C=C(\C)C(=O)O[C@@H]1O[C@H](CO[C@@H]2O[C@H](CO)[C@@H](O)[C@H](O)[C@H]2O)[C@@H](O)[C@H](O)[C@H]1O)=C\C=C\C=C(C)\C=C\C=C(/C)C(=O)O[C@@H]1O[C@H](CO[C@@H]2O[C@H](CO)[C@@H](O)[C@H](O)[C@H]2O)[C@@H](O)[C@H](O)[C@H]1O [Crocin] | 136 | 34 ^a µM | ocular turbidity was observed, along with mild conjunctival hyperemia | superior anti-inflammatory efficacy compared to their lower-dose counterparts | exhibited anti-inflammatory properties at all tested concentrations | 
COc1ccc(-c2cc(=O)c3c(OC)c(OC)c(OC)c(OC)c3o2)cc1OC [Nobiletin] | 131 |  | ocular turbidity was observed, along with mild conjunctival hyperemia | superior anti-inflammatory efficacy compared to their lower-dose counterparts | exhibited anti-inflammatory properties at all tested concentrations | 32.75 ^a µM
